Test in all cases: NCI tumour cell line growth inhibition, 48 h
For assay [1], the system named is CAKI-1 renal.
The subject of assay [2] is LOX IMVI melanoma.
For assay [3], the system named is UACC-62 melanoma.
In assay [4] the test system is HCT-116 colon.
Assay [5] has as its system COLO 205 colon.
Assay [6] relates to HOP-92 NSCLC.
Assay [7] has as its system U251 CNS.
Assay [8] deals with NCI-H226 lung.
Assay [9] has as its system KM12 colon.
The test system of assay [10] is ACHN renal.

This is an account of results in PubChem BioAssay (NCI).

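Results reflect a 48-hour exposure of cells in 96-well plates to compound at five concentrations. Here, GI50 denotes the concentration required for 50% inhibition of growth. At the TGI there is no net growth.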

As for `Cc1nc(N)sc1N=Nc1ccccc1Br`, the TGI in assay [1] is 81.8 µM; in assay [2] it was greater than 66.1 µM; in assay [3], 45.4 µM; in [4] it was 55.1 µM; in assay [5], greater than 93 µM; in assay [6] it was 46.1 µM. Moreover, the TGI in [7] was 52.6 µM; in [8], 68.2 µM; in [9] it was 51.1 µM; in assay [10], greater than 86 µM.

As to `N#Cc1nn(-c2cc(=O)[nH]c3ccc(Cl)cc23)c(N)c1C#N`, the GI50 in assay [1] was greater than 100 µM; in assay [2], greater than 100 µM; in assay [3] it was greater than 100 µM; in assay [4], greater than 100 µM; in assay [5], 59.3 µM; in [6] it was 10.2 µM. Also, the GI50 in assay [7], in assay [8], in [9] and in assay [10] was greater than 100 µM throughout. The TGI in assay [1], in [2], in assay [3], in assay [4], in assay [5] and in [6] was greater than 100 µM each time. For the same molecule, the TGI in assay [7], in assay [8], in assay [9] and in [10] was greater than 100 µM in each case.

`C/C(CC(=O)Nc1ccc(C)c(C)c1)=N\N(c1ccccc1)c1ccccc1`: the TGI was greater than 100 µM in [1]; greater than 100 µM in assay [2]; 57.4 µM in [3]; greater than 100 µM in assay [4]; 34.6 µM in assay [5]; greater than 100 µM in [6]. Also, the TGI was 30.5 µM in [7], greater than 100 µM in assay [8], greater than 100 µM in assay [9] and greater than 100 µM in assay [10].

As for `CC1CC2CCCC(O)=C2C(=O)O1` (stereo not given), the TGI in assay [1], in assay [2], in [3], in [4], in assay [5] and in assay [6] was greater than 100 µM throughout. For the same molecule, the TGI in [7], in assay [8], in assay [9] and in assay [10] was greater than 100 µM each time.

Consider `COc1cc(N=Nc2ccc(O)c3ncccc23)c2ncccc2c1`, for which the GI50 in assay [1] is 1.83 µM; in assay [2], 2.13 µM; in assay [3] it was 2.4 µM; in assay [4], 2.56 µM; in [5], 5.65 µM; in assay [6], 1.97 µM. The GI50 was 3.43 µM in [7], 6.07 µM in assay [8], 4.21 µM in [9] and 2.3 µM in [10]. Further, the TGI was greater than 100 µM in assay [1]; greater than 100 µM in assay [2]; 7.68 µM in assay [3]; greater than 100 µM in [4]; greater than 100 µM in assay [5]; greater than 100 µM in [6]. Besides, the TGI in [7] was greater than 100 µM; in assay [8], greater than 100 µM; in assay [9] it was greater than 100 µM; in assay [10], 14.2 µM.

Turning to `COC(=O)/C(C#N)=C1\N=NNN1c1ccc(OC)cc1`, the TGI in assay [1], in assay [2], in assay [3], in assay [4], in assay [5] and in assay [6] was greater than 100 µM each time. The TGI in assay [7], in assay [8], in assay [9] and in [10] was greater than 100 µM in each case.

With `O=C(Cc1ccc(F)c(Cl)c1)Nc1cc(C2(C(F)(F)F)CC2)nn1CC1CCCCC1`, the GI50 was 2.93 µM in [1]; 4.58 µM in [2]; 3.37 µM in assay [3]; 3.88 µM in [4]; 2.59 µM in assay [5]; 2.69 µM in assay [6]. The GI50 is 5.13 µM in assay [7], 4.32 µM in [8], 3.74 µM in assay [9] and 4.22 µM in [10]. Also, the TGI is 8.79 µM in assay [1]; greater than 15 µM in assay [2]; 11.5 µM in assay [3]; greater than 15 µM in [4]; 5.41 µM in assay [5]; 10.7 µM in assay [6]. The TGI in [7] is greater than 15 µM; in assay [8], greater than 15 µM; in assay [9], 12.3 µM; in [10] it was 13.9 µM.

As for `N=c1c2c(-c3ccccc3)c(-c3ccccc3)n(Cc3ccccc3)c2ncn1C1CCC(O)CC1` (stereo not given), the GI50 was 0.147 µM in assay [1]; 0.14 µM in assay [2]; 0.534 µM in [3]; 0.0446 µM in assay [4]; 0.417 µM in assay [5]; 0.24 µM in assay [6]. In addition, the GI50 in assay [7] was 0.15 µM; in [8], 0.517 µM; in assay [9], 0.327 µM; in assay [10], 0.0653 µM. Further, the TGI turned out to be 1.89 µM in [1]; 1.69 µM in assay [2]; 7.06 µM in assay [3]; 1.75 µM in [4]; 2.23 µM in [5]; 4.33 µM in assay [6]. Moreover, the TGI in assay [7] stood at 5.3 µM; in assay [8] it was 16.8 µM; in assay [9] it was 11.1 µM; in [10], 12.8 µM.

Regarding `O=C(Nc1cccc(Cl)c1)C(=O)C(C(=O)c1ccc2ccccc2c1)C1OC(=O)c2ccccc21` (stereo not given), the TGI is 67.6 µM in assay [1]; 44.5 µM in assay [2]; 40.6 µM in assay [3]; 26.7 µM in [4]; 38.1 µM in assay [5]; 54.3 µM in assay [6]. In addition, the TGI stood at 21.2 µM in [7], 11.5 µM in [8], 60.3 µM in [9] and 82.7 µM in assay [10].

Turning to `O=c1oc2ccc(-c3ccc(F)cc3F)cc2c(=O)n1-c1cccc(C(F)(F)F)c1`, the GI50 in assay [1] was 1.22 µM; in assay [2], 1.61 µM; in [3], 0.382 µM; in assay [4] it was 1.33 µM; in assay [5], 10.4 µM; in assay [6] it was 0.172 µM. The GI50 in [7] is 1.73 µM; in assay [8] it was 1.43 µM; in [9], 2.09 µM; in assay [10], 2.25 µM. Also, the TGI in assay [1] stood at 5.19 µM; in [2], 5.55 µM; in [3], 2.79 µM; in assay [4], 3.45 µM; in assay [5], 24.7 µM; in assay [6], 0.931 µM. Further, the TGI in [7] came to 12.7 µM; in [8] it was 5.19 µM; in assay [9], 5.63 µM; in assay [10] it was 8.37 µM.
